The results in this text go back to US12686832B2, “Ashless ionic liquid” (PETROLIAM NASIONAL BERHAD (PETRONAS), priority 2022, dated 2026).

Data set [1] can be described thus: Experimental solubility at 1 wt % in lubricant base oils. The data set is classed as physicochemical. The protocol: ILN18-5B-DC12 was mixed in mineral base oil Group III+ (ETRO 4+) and PETRONAS LB 25 polyol ester (and their mixtures) at 1 wt. % concentration to assess solubility and tribology evaluation. Samples were prepared by mixing the solutions at 60° C. for 1 h.
Samples were prepared by mixing the solutions at 60° C. for 1 h.
ILN18-MECA-1 was mixed in mineral base oil Group III+(ETRO 4+) and PETRONAS LB 25 polyol ester at 1 wt % concentration respectively to assess solubility and tribology evaluation. Samples were prepared by mixing the solutions at 60° C. for 1 h.

Data set [2] is described as follows: Thermo-gravimetric analysis under nitrogen (ashless nature). The data set is classed as physicochemical. An excerpt:
The ashless nature of the formed ionic liquid was confirmed by thermo-gravimetric analysis under nitrogen (0.4788 wt. % residue).
The ashless nature of the formed ionic liquid was confirmed by thermo-gravimetric analysis under nitrogen (0.47271 wt. % residue).

Data set [3] in a line: High Frequency Reciprocating Rig (HFRR) tribology test. Conditions: for Friction coefficient behaviour over contact time / friction reduction compared to the baseline fluid / wear scar diameter reduction compared to the baseline fluid: 1 wt % in PETRONAS LB 25 polyol ester; for Friction coefficient behaviour over contact time: vs baseline fluid. The protocol:
High Frequency Reciprocating Rig (HFRR): tribology test rubbing of ball to disc metal specimens, under pure sliding contact (boundary lubrication regime), load at 400 g, frequency at 20 Hz, temperature at 120° C. for 60 mins. Only visually soluble solutions were evaluated, therefore, only Formulation 2 and Formulation 3 were tested. Reported values were the average of minimum 2 repeat runs.
High Frequency Reciprocating Rig (HFRR): tribology test rubbing of ball to disc metal specimens, under pure sliding contact (boundary lubrication regime), load at 400 g, frequency at 20 Hz, temperature at 120° C. for 60 mins. Only visually soluble solutions were evaluated, therefore, only Formulation 2 was tested. Reported values were the average of minimum 2 replicate runs.
High Frequency Reciprocating Rig (HFRR): tribology test rubbing of ball to disc metal specimens, under pure sliding contact (boundary lubrication regime), load at 400 g, frequency at 20 Hz, temperature at 120° C. for 60 mins. Reported values were the average of minimum 2 replicate runs.

Data set [4] in a line: Miscibility study in ETRO 4+. The data set is classed as physicochemical. Conditions: 1 wt. % in ETRO 4+, mixed at 60° C. for 1 h, left 24 h before observation. The protocol:
Synthesised ionic liquids (1 wt. %) were mixed with ETRO 4+ solution at 60° C. for 1 h, and left to sit for 24 h before observation.

The mark [5] stands for this setting: 1 wt % in ETRO 4+ (89%) and LB 25 (10%), HFRR 400 g, 20 Hz, 120° C., 60 mins.
Setting [6] is: HFRR 400 g, 20 Hz, 120° C., 60 mins.

With `CC(C)(COC(=O)CCCCCCCCCCC(=O)O)COC(=O)CCCCCCCCCCC(=O)O` [ILN18-5B-DC12], the Experimental solubility result in data set [1] (Formulation 1: 1 wt % in Group III Mineral Oil (ETRO 4+), mixed at 60° C. for 1 h) is reported as “Insoluble”. Also, in data set [1] (Formulation 2: 1 wt % in PETRONAS polyol ester LB 25, mixed at 60° C. for 1 h), the Experimental solubility result is listed as “Soluble, clear solution”. Moreover, the Experimental solubility entry in data set [1] (Formulation 3: 1 wt % in ETRO 4+ (89%) and LB 25 (10%), mixed at 60° C. for 1 h) is reported as “Soluble, clear solution”. In data set [2], the “residue in thermo-gravimetric analysis” value turned out to be 0.4788 wt. %. In addition, in data set [3] (setting [5]), the “friction reduction compared to baseline” value is on record as 55% and the “wear scar diameter reduction compared to baseline” value stood at 57%. Also, the “Friction coefficient behaviour over contact time” value in data set [3] is on record as “significant friction reduction”. For the same molecule, in data set [3] (setting [6]), the “friction reduction compared to the baseline fluid” value came to 67% and the “wear scar diameter reduction compared to the baseline fluid” value was 59%.
On to `CCCCCCCCC(=O)OC(CCCCCC)CCCCCCCCCCC(=O)[O-].CCCCCCCC[N+](C)(CCCCCCCC)CCCCCCCC` (stereo not shown) [ILN18-MECA-4], for which the “Appearance (miscibility)” value in data set [4] is given as “Clear solution”.
As for `CC(C)(COC(=O)CCCCCCCCC(=O)[O-])COC(=O)CCCCCCCCC(=O)[O-].CCCCCCCC[N+](C)(CCCCCCCC)CCCCCCCC.CCCCCCCC[N+](C)(CCCCCCCC)CCCCCCCC` [ILN18-5B-DC10], the “Appearance (miscibility)” value in data set [4] is reported as “Insoluble (2 separate phases)”.
Regarding `CCCCCCCC[N+](C)(CCCCCCCC)CCCCCCCC.CCCCCCCC[N+](C)(CCCCCCCC)CCCCCCCC.O=C([O-])CCCCCCCCCCC(=O)[O-]` [ILN18-DC12, reference compound], the “Appearance (miscibility)” value in data set [4] was “Insoluble (2 separate phases)”.
For “tris-(trioctyl methylammonium) trisebacate [ILN18-6BT-DC10]”, the “residue in thermo-gravimetric analysis” value in data set [2] stood at 0.4727 wt. %. The “Friction coefficient behaviour over contact time” value in data set [3] is “significant friction reduction”. Further, in data set [3] (setting [6]), the “friction reduction compared to the baseline fluid” value worked out at 57% and the “wear scar diameter reduction compared to the baseline fluid” value is 58%.
